{"source": "paper PMC9889419", "about": "(Pharmacological Reports, 2022)", "key": {"MTLE mice": {"test_system": "MTLE mice", "assay": "MTLE mice acute screen evaluation", "format": "in vivo"}, "NMDA": {"test_system": "NMDA", "assay": "Electrophysiology studies (Test 17)", "format": "cell-based", "settings": "100 uM, holding potential -70 mV", "excerpt": "Solvent Code: DMSO Solvent Prep: 257.759\nTest Add CompoundConc.(uM) # Cells % Control +/- SEM\n(§1) (1 picture or pasted object on this page, not shown here)"}, "[1]": {"test_system": "P-glycoprotein (pregnane X receptor)", "assay": "In vitro metabolic gene induction studies", "format": "cell-based, human", "settings": "up to 500 uM", "excerpt": "Test 28 - In Vitro Metabolic Gene Induction Studies\nSolventcode: DMSO Solvent Prep: Unit: uM\nCell line source: Puracyp Molecular 257.7590\nDate Started: O5+eb-2O10 Date Completed: 15+eb-201O Weight:\nReference: Lamb book#8 pg.77 […]\nlsoform Code: P{lycoprotein cell line: MDRI.C\nInduc0on mechanism: pregnane X receptor\nConcentration lnduction Cell […]\nNote: 8ox ifdata is different.\n. {calculated): slight Induotion (under tlffo fold) in vitro.\nThe highest response was less than that seen with 1ouM rifampicin.\nas §1"}, "[2]": {"test_system": "organotypic hippocampal slice cultures", "assay": "Neuroprotection primary screen, excitotoxin NMDA", "format": "cell-based", "settings": "NMDA 10 µM; 10 and 100 µM compound", "excerpt": "Gompound 1 : ADD Number: ItSot+ Batct: lE- Date Started:\nCompound 2 : ADD Number: Froso Batct: le Date Completed i l|26-M ar -20 1 O […]\nExcitotoxin: lNmoa lnsult Duration: la Uouo Solvent:\nPrimary Screen Results: ffi […]\nAl lruuoa rolrr,| A2lr'rrr,tOa r Olrrr,t * --.- A3 lr'rnroa r oprvr + lsaoot+ t oplrl+aesogo iopM\nBZ lr.rrr,ron ropr,t , -_-_-- 83 lluoa topt',r * jffi 1 4 t oopM.€sroso 1 oolrM la+eota tooptu*aasoeo roffi […]\nThe 'Primary screen Experiment\" is a qualitative assessment of the ability of a compound to prevent excrtotoxic cell death. organotypic hippocampal slice cultures are treated *ltn r.i-.\"iivr-o-\"spartate (NMDA) or kainic acad (KA) to induce neuronal cell death' Propidium iodide (Pl), a membrane-imper.eant cornpouna, is included in all wells of the culture plate.\nDying cells have compromised *]lT^\"Toj*::, ttr. er rnJy oin \"\" into the cell, intercatate with DNA and fluoresce. Thus, the intensity of the Pl fluorescence is proportional to the amount of cell death in lhe individual itices. ttippocampat slice cullures are treated with the excitotoxin alone, or *i er. inoi\"ui\"o above, with the excitotoxin and either one -qf]bar-a Investigalional compounds at the concentrations indicated. lf neuroprotectron occurs as a consequence of the added […]\nbeen treated with the excitotoxin alone.\nas §1"}, "STZ-treated mice": {"test_system": "STZ-treated mice", "assay": "Streptozotocin-induced diabetic neuropathy, hot plate test", "format": "in vivo", "procedure": "Induction of diabetes. To induce diabetes the mice were injected with a single ip streptozotocin (STZ, Sigma-Aldrich, Germany) dose (200 mg/kg) dissolved in 0.1 N citrate buffer. Blood glucose levels were measured 1 h before and repeatedly 1, 2 and 3 weeks after STZ injection using a blood glucose monitoring system (AccuChek Active, Roche, France). Blood samples (5 µL) for the measurement of glucose concentration were obtained from the mouse tail vein. The animals were defined as diabetic when their blood glucose concentration exceeded 300 mg/dL and only those mice were used as diabetic mice in further tests. The body weight of mice was monitored 1 h before and 21 days after STZ injection.\nAssessment of heat hyperalgesia in STZ-treated mice—hot plate test. Thermal hyperalgesia was assessed using the hot plate apparatus (Bioseb, France). In this test, after the establishment of pre-drug latency to pain reaction for each animal, the mice were treated with the tested compound and 30 min later they were placed into a glass cylinder on a hot plate set at 55 °C and observed for a nocifensive response (hind paw licking or jumping). The cut-off time was established at 30 s."}, "mice [3]": {"test_system": "mice", "assay": "Hot plate test", "format": "in vivo", "procedure": "The hot plate test was performed as previously described. The mice were ip pre-treated 30 min before experiment either with the compound, dissolved in saline (at doses 10, 30 and 100 mg/kg) or vehicle and were placed on a hot plate set at 55 °C (Hot plate, Omega 2A, Poland). Latency to nocifensive reaction (hind paw licking or jumping) of mice was recorded. The mouse was removed from the plate immediately upon licking a hind paw/jumping or if no response occurred within 60 s (cut-off)."}, "mice [4]": {"test_system": "mice", "assay": "Capsaicin test", "format": "in vivo", "procedure": "Neurogenic pain—capsaicin test. In this test compound dissolved in saline was tested at doses 5, 10, and 30 mg/kg. Compound was administered ip and 30 min later 1.6 μg of capsaicin (Sigma-Aldrich, Germany) dissolved in 20 μL of a mixture containing 0.9% saline and ethanol (5% of the final volume) was injected intraplantarly in the ventral surface of the right-hind paw of each mouse. The animals were observed individually for 5 min following capsaicin injection. In all experimental groups, the amount of time spent on licking, biting, or lifting the injected paw was recorded with a chronometer and was considered as an indicator of nociception."}, "mice [5]": {"test_system": "mice", "assay": "Tail immersion test (local anesthetic activity)", "format": "in vivo", "method": "The tail immersion test in mice. […] The method was performed by subcutaneous (sc) injection of the tested substance dissolved in saline, at a concentration range 0.06–2%, in a constant volume of 0.2 mL about 1 cm from the root of the mouse tail. Fifteen minutes later, the 3-cm distal part of the tail was immersed into temperature-controlled water (50 ± 0.5 °C). The reaction time (latency until the tail is pulled away) was measured by the means of a chronometer. In this assay the cut-off was 20 s [29]."}, "hNav1.1 sodium channel": {"molecular_target": "T1, hNav1.1 sodium channel (Homo sapiens, UniProt P35498)", "T1 construct": "host or cells: CHO cells", "assay": "Nav channel electrophysiology (IonWorks Quattro)", "format": "cell-based"}, "hNav1.3 sodium channel": {"molecular_target": "T2, hNav1.3 sodium channel (Homo sapiens, UniProt Q9NY46)", "T2 construct": "host or cells: CHO cells", "assay": "Nav channel electrophysiology (IonWorks Quattro)", "format": "cell-based"}, "hNav1.5 sodium channel": {"molecular_target": "T3, hNav1.5 sodium channel (Homo sapiens, UniProt Q14524)", "T3 construct": "host or cells: CHO cells", "T3 sequence (Q14524 whole entry)": "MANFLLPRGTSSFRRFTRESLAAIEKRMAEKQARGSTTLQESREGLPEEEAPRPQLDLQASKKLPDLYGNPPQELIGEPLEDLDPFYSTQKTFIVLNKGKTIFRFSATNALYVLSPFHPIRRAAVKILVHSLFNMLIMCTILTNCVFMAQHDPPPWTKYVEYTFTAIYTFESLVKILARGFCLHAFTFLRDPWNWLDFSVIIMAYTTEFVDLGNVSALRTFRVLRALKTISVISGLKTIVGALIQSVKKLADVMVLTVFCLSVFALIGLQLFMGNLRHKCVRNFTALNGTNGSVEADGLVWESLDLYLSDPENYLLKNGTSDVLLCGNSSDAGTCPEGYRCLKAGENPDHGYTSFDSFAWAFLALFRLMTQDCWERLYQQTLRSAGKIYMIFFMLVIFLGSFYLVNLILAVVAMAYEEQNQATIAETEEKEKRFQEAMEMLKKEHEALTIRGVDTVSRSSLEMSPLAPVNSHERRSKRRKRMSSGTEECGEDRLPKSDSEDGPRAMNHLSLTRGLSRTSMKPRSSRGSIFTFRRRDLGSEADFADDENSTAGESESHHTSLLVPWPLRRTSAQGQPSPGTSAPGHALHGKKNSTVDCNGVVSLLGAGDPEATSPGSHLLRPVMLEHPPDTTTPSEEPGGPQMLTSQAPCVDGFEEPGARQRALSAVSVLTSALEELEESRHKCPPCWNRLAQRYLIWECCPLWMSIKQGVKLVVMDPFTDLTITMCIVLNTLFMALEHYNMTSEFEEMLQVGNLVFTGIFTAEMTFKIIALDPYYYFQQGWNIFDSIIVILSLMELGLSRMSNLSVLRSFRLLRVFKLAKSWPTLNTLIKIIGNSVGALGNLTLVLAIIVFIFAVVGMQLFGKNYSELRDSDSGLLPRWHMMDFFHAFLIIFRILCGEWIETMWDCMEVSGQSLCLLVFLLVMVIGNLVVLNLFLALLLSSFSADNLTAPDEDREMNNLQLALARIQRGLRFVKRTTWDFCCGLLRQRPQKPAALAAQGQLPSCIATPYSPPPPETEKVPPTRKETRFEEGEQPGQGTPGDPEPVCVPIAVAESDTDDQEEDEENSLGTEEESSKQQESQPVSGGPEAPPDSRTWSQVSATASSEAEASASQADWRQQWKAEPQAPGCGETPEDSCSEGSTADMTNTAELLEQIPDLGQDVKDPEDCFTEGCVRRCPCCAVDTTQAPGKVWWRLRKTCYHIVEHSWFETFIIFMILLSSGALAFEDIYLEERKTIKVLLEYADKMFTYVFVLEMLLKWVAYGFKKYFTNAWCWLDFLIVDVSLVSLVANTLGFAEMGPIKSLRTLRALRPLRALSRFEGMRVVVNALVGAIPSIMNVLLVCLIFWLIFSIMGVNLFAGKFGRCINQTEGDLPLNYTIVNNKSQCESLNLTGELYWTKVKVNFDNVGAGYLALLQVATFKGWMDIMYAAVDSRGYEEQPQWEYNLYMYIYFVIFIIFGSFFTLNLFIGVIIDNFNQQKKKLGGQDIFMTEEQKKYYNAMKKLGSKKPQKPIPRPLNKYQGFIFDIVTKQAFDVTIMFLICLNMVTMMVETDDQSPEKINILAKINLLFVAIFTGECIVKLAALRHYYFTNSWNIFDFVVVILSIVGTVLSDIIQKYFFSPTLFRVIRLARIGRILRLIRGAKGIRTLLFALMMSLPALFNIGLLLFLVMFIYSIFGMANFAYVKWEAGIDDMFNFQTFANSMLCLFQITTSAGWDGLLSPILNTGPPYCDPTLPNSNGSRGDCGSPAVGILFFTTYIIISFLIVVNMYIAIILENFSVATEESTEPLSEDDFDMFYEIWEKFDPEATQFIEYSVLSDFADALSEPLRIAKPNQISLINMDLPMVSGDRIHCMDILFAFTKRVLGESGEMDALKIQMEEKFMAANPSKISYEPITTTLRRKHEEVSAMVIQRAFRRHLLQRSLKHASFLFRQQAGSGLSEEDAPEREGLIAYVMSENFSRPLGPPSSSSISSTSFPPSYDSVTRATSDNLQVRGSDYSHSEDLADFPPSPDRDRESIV", "assay": "Nav channel electrophysiology (IonWorks Quattro)", "format": "cell-based"}, "[6]": {"molecular_target": "T4, hNav1.8/beta3 sodium channel (Homo sapiens, UniProt Q9Y5Y9)", "T4 construct": "host or cells: CHO cells", "T4 sequence (Q9Y5Y9 whole entry)": "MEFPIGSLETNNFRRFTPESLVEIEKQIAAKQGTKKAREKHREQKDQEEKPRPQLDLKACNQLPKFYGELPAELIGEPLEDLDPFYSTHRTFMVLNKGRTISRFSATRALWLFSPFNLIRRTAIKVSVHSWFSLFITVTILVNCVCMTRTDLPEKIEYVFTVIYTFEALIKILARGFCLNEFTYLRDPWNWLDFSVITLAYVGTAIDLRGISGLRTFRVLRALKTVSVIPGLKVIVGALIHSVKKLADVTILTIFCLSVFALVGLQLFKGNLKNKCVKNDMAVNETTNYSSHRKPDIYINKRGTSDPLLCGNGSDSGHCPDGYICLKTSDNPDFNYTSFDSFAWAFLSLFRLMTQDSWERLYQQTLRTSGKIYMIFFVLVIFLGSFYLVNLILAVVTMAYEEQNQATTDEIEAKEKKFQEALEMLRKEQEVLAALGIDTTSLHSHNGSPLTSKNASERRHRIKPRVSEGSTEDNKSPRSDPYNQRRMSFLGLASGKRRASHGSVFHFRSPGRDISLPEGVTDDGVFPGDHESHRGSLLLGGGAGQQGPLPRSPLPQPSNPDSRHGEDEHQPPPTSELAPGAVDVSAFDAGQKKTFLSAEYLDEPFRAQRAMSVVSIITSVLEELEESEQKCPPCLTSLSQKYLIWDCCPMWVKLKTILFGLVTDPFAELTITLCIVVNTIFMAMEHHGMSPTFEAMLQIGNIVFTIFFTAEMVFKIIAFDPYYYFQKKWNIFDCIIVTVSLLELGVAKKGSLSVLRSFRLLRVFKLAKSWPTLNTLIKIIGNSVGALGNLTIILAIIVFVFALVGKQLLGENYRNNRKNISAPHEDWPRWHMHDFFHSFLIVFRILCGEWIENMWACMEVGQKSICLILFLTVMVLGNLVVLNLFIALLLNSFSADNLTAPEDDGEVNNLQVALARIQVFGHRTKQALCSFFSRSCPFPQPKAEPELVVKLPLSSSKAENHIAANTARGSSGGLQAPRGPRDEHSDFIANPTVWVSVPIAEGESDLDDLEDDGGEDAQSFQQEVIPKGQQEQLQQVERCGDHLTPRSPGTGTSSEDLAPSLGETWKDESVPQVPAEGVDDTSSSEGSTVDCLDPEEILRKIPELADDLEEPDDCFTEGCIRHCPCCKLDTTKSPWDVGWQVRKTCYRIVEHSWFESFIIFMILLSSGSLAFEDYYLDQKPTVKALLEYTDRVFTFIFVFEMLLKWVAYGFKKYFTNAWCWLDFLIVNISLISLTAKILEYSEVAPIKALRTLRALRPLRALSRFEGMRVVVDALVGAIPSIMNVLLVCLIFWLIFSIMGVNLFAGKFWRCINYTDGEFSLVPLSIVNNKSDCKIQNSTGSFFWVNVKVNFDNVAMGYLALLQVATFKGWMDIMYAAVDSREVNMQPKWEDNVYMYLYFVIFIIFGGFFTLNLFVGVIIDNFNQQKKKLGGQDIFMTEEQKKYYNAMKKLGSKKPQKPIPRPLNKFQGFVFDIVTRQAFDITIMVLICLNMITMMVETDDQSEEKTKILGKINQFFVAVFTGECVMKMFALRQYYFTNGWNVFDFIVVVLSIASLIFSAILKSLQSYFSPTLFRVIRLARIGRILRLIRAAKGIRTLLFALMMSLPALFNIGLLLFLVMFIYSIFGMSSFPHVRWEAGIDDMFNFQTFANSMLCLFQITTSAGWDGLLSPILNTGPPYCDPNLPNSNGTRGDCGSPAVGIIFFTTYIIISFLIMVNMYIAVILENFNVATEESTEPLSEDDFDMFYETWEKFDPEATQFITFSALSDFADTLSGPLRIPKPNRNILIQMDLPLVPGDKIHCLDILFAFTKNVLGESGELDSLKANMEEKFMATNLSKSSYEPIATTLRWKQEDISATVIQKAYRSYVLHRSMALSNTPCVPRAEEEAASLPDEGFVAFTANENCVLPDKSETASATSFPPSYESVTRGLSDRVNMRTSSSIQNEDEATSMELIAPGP", "T4 sequence (Q9NY72 25-215 partner limits assumed)": "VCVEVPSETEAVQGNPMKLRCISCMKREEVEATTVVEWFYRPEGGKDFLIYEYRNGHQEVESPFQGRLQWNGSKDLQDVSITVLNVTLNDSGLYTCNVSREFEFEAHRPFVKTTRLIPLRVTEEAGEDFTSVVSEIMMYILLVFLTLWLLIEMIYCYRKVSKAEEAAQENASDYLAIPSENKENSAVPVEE", "assay": "Nav channel electrophysiology (IonWorks Quattro)", "format": "cell-based"}, "mice [7]": {"test_system": "mice", "assay": "animal or person", "settings": "Mus musculus, ip, read-out: MES ED50"}}, "note": "Where “and” joins values, the source holds several entries; their conditions need not be identical. Identical values can stand only once. Counter-ions that a name gives are not always drawn.", "data": [{"smiles": "CCC(CO)NCCOc1c(C)cccc1Cl", "note": "(stereo not shown) [Compound 4, R,S-2-((2-(2-chloro-6-methylphenoxy)ethyl)amino)butan-1-ol]", "values": [{"measurement": "MTLE mice acute screen: % of baseline", "setting": "MTLE mice; at 30 mg/kg, recording period 5–25 min", "result": "80.8 ± 16.8 % of baseline"}, {"measurement": "MTLE mice acute screen TPE", "setting": "MTLE mice; mice, ip", "result": 0.25, "unit": "h"}, {"measurement": "% Control +/- SEM", "setting": "NMDA", "result": 63, "unit": "%"}, {"measurement": "induction", "setting": "[1]", "result": "slight induction"}, {"measurement": "Test Result (neuroprotection)", "setting": "[2]", "result": "No Neuroprotection"}]}, {"smiles": "CCC(CO)NCCOc1c(C)cccc1Cl", "note": "(stereo not shown) [KM-408, R,S-2-((2-(2-chloro-6-methylphenoxy)ethyl)amino)butan-1-ol hydrochloride]", "values": [{"measurement": "effect in hot plate test", "setting": "STZ-treated mice; 1 mg/kg, STZ-treated mice", "result": "not effective"}, {"measurement": "latency to pain reaction", "setting": "STZ-treated mice; 10 mg/kg, STZ-treated mice", "result": "15.8 ± 2.2", "unit": "s"}, {"measurement": "prolongation of latency vs. diabetic control", "setting": "STZ-treated mice; 10 mg/kg, STZ-treated mice", "result": 63, "unit": "%"}, {"measurement": "latency to pain reaction", "setting": "STZ-treated mice; 30 mg/kg, STZ-treated mice", "result": "21.6 ± 2.2", "unit": "s"}, {"measurement": "prolongation of latency vs. diabetic control", "setting": "STZ-treated mice; 30 mg/kg, STZ-treated mice", "result": 123, "unit": "%"}, {"measurement": "STZ-induced pain (hot plate): active at", "setting": "STZ-treated mice; mice, ip", "result": 10, "unit": "mg/kg"}, {"measurement": "effect on the thermal pain threshold", "setting": "mice [3]; 10 mg/kg ip", "result": "no significant effect"}, {"measurement": "prolongation of nocifensive response", "setting": "mice [3]; 30 mg/kg ip", "result": 123, "unit": "%"}, {"measurement": "prolongation of nocifensive response", "setting": "mice [3]; 100 mg/kg ip", "result": 177, "unit": "%"}, {"measurement": "hot plate test: active at", "setting": "mice [3]; mice, ip", "result": 30, "unit": "mg/kg"}, {"measurement": "reduction of nociceptive response", "setting": "mice [4]; 5 mg/kg ip, not significant", "result": 19, "unit": "%"}, {"measurement": "licking response", "setting": "mice [4]; 10 mg/kg ip", "result": "42.7 ± 5.6", "unit": "s"}, {"measurement": "reduction of licking response", "setting": "mice [4]; 10 mg/kg ip", "result": 38, "unit": "%"}, {"measurement": "licking response", "setting": "mice [4]; 30 mg/kg ip", "result": "27.7 ± 5.7", "unit": "s"}, {"measurement": "reduction of licking response", "setting": "mice [4]; 30 mg/kg ip", "result": 60, "unit": "%"}, {"measurement": "ED50", "setting": "mice [4]; Mus musculus, mice, ip", "result": 19, "unit": "mg/kg"}, {"measurement": "Reaction time to painful stimulus", "setting": "mice [5]; 0.062%", "result": "4.4 ± 1.0", "unit": "s"}, {"measurement": "Prolongation of the time reaction", "setting": "mice [5]; 0.125%", "result": 42.9, "unit": "%"}, {"measurement": "Reaction time to painful stimulus", "setting": "mice [5]; 0.125%", "result": "5.0 ± 1.0", "unit": "s"}, {"measurement": "Prolongation of the time reaction", "setting": "mice [5]; 0.5%", "result": "166% and 165.7%"}, {"measurement": "Reaction time to painful stimulus", "setting": "mice [5]; 0.5%", "result": "9.3 ± 0.9", "unit": "s"}, {"measurement": "Prolongation of the time reaction", "setting": "mice [5]; 2.0%", "result": "323% and 322.9%"}, {"measurement": "Reaction time to painful stimulus", "setting": "mice [5]; 2.0%", "result": "14.8 ± 1.9", "unit": "s"}, {"measurement": "Reaction time to painful stimulus", "setting": "mice [5]; […]", "result": "7.4 ± 1.0", "unit": "s"}, {"measurement": "tail immersion test: active at", "setting": "mice [5]; mice", "result": 0.5, "unit": "%"}, {"measurement": "IC50", "setting": "hNav1.1 sodium channel; 10 Hz", "result": 17.5, "unit": "µM"}, {"measurement": "IC50", "setting": "hNav1.1 sodium channel; Inactivated state", "result": "< 10", "unit": "µM"}, {"measurement": "IC50", "setting": "hNav1.1 sodium channel; Tonic block", "result": 64.2, "unit": "µM"}, {"measurement": "IC50", "setting": "hNav1.3 sodium channel; 10 Hz", "result": 13.1, "unit": "µM"}, {"measurement": "IC50", "setting": "hNav1.3 sodium channel; Inactivated state", "result": "< 10", "unit": "µM"}, {"measurement": "IC50", "setting": "hNav1.3 sodium channel; Tonic block", "result": 49.2, "unit": "µM"}, {"measurement": "IC50", "setting": "hNav1.5 sodium channel; 10 Hz", "result": 4.85, "unit": "µM"}, {"measurement": "IC50", "setting": "hNav1.5 sodium channel; Inactivated state", "result": "< 10", "unit": "µM"}, {"measurement": "IC50", "setting": "hNav1.5 sodium channel; Tonic block", "result": 47.9, "unit": "µM"}, {"measurement": "IC50", "setting": "[6]; 10 Hz", "result": 15.2, "unit": "µM"}, {"measurement": "IC50", "setting": "[6]; Inactivated state", "result": "< 10", "unit": "µM"}, {"measurement": "IC50", "setting": "[6]; Tonic block", "result": 44.1, "unit": "µM"}, {"measurement": "ED50", "setting": "mice [7]", "result": 13.3, "unit": "mg/kg"}]}]}
